Source: patent US11242327B2, “Analgesic compounds” (RECURIUM IP HOLDINGS, LLC, priority 2017, dated 2022)
Where a name gives a salt, the structure may show the parent alone.

How the values were obtained:
[1] = target: Opiate δ1 (Homo sapiens, UniProt P41143); assay: NSAIDS and Opioid Receptor Test: Opiate δ1; assay type: binding
Experimental: (§1) Compounds were screened as DMSO solutions at 10 μM, 100 μM, or 200 μM and values represent percent inhibition of control-specific binding. […] As NSAID and opioid mechanisms of action are precluded, a person of ordinary skill in the art understands that undesirable side effects associated with inhibition of COX receptors in NSAIDs and activation of opiate receptors in opioids can be avoided by compounds described herein. Furthermore, opioids are known to lose their analgesic potency after to continued administration. (See Benyamin, et al. “Opioid Complications and Side Effects” Pain Physician 11 (2008): S105-S120). As the data indicates compounds described herein have a different mechanism action compared to opioids, a person of ordinary skill in the art would appreciate that compounds described herein would not be expected to lose their analgesic potency like opioids after continued admininistration.

[2] = tested on: male Sprague-Dawley rats; assay: UVB Inflammatory Pain Test (thermal hyperalgesia); assay type: in vivo; details: rat, oral, 300 mg/kg
Experimental: UVB irradiation to the surface of the hind paw was used to induce cutaneous inflammatory pain in non-fasted male Sprague-Dawley rats weighing 175-300 g. On Day −3, animals were restrained and the plantar surface of the left hind paw was exposed to 350 mJoules/cm^2 of UVB irradiation using a narrow band UVB light source (Daavlin®, Bryan, Ohio). Following UVB irradiation, animals were returned to their home cage. Thermal hyperalgesia was assessed prior to dosing and approximately 1, 2, and 4 hours after dosing on Day 0 using a radiant heat plantar test apparatus (IITC Life Sciences©; Woodland Hills, Calif.). Animals were placed in individual acrylic chambers on a glass platform warmed to 30±2° C. and allowed to acclimate to their surroundings for a minimum of 15 minutes before testing. The stimulus was presented to the plantar surface and the timer was activated. The stimulus intensity was set such that pre-injury paw withdrawal latencies were approximately 12-18 seconds. Paw withdrawal latency values were recorded at the first observed nocifensive behavior (paw withdrawal, flinching, biting and/or licking). Three paw withdrawal latencies were measured for each hind paw per time point. The mean of the 3 values was taken as the paw withdrawal latency for that time point. A maximum cutoff latency of 30 seconds was used to prevent injury to the animal. The mean and standard error of the mean (SEM) were determined for each paw for each treatment group at each time point. Test compounds were administered orally at concentrations of 3, 10, 30 or 100 mg/kg; celecoxib was administered orally at a concentration of 30 mg/kg; and acetaminophen was administered orally at a concentration of 300 mg/kg. The control group received the vehicle (sterile water). In Table 4, ‘A’ designates >8 seconds of paw withdrawal latency, ‘B’ designates >6 and <8 seconds of paw withdrawal latency, and ‘C’ designates <6 seconds of paw withdrawal latency.
The results provided in Table 4 are for oral administration in rats. […] Furthermore, while acetaminophen was dosed at 300 mg/kg, compounds of Formulae (Ie), (Ih) and (Ik), or a pharmaceutically acceptable salt of any of the foregoing, were dosed at 3 mg/kg, 10 mg/kg and 100 mg/kg.

[3] = tested on: adult male C57BL/6 mice; assay: Conditioned Place Preference (Abuse) Test; assay type: in vivo, mouse
Text: A conditioned place preference (CPP) model was used to assess the reward properties of compounds of formulae (Ie), or a pharmaceutically acceptable salt of any of the foregoing, in adult male C57BL/6 mice. The CPP model apparatus consisted of a Plexiglas© test unit having three (A, B, C) compartments (9 cm×9 cm×16 cm) configured to allow access to all chambers. Compartments A and C had textually distinct flooring and wall marking. Mice were placed in the middle compartment with free access to the other compartments. On day 1 and 2, the “naive chamber preference” was assessed by placing the animal in the middle chamber twice a day (AM and PM) for 30 min on two consecutive days, with the chamber showing the greatest residence time being called the “preferred chamber”. On “drug pairing days” (days 5, 6, 7 and 8) mice were injected IP with vehicle (50 mM citric acid) in the AM in the preferred chamber and the drug/vehicle in the afternoon in the non-preferred chamber for four consecutive days. On the morning of day 9 (the day after the last drug pairing), the “drug chamber preference” was assessed by placing the mouse (absent any injection) in the middle chamber, with free access to all chambers for 30 minutes. This was repeated five days later (day fourteen), with no intervening drug treatment.
The time spent on days 9 and 14 (e.g. […] respectively after the last drug treatment) in the drug associated chamber was the test datum and is represented in FIG. 1. […] In contrast, there was no increase in the non-preferred chamber residence time when the least-preferred chamber was paired with saline, APAP or test compounds 2 or 28 on either days 9 or 14, or days 0 or 5.

[4] = target: COX-1 (Homo sapiens, UniProt P23219); assay: NSAIDS and Opioid Receptor Test: COX-1; assay type: biochemical
Experimental: as §1

[5] = target: T1, COX-2 (Homo sapiens, UniProt P35354); assay: NSAIDS and Opioid Receptor Test: COX-2; assay type: biochemical
T1 sequence (P35354 18-604): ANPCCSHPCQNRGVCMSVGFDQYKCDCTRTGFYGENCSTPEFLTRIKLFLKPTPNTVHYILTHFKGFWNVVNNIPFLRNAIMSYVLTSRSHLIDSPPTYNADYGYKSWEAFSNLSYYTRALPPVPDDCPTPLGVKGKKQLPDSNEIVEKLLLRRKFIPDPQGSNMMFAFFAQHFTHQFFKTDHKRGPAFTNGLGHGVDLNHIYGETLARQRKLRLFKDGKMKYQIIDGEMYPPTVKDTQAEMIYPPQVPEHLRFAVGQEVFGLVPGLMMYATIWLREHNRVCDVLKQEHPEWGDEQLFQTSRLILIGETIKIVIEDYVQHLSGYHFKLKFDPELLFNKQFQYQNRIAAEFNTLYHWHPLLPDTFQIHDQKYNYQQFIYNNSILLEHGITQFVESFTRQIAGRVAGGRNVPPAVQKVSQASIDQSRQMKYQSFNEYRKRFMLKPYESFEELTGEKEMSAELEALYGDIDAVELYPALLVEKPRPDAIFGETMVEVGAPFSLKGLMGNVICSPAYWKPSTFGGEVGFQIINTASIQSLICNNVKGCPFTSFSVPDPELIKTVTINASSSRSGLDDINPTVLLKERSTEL
Experimental: as §1

[6] = target: Opiate μ (Homo sapiens, UniProt P35372); assay: NSAIDS and Opioid Receptor Test: Opiate μ; assay type: binding
Experimental: as §1

[7] = target: Opiate κ (Homo sapiens, UniProt P41145); assay: NSAIDS and Opioid Receptor Test: Opiate κ; assay type: binding
Experimental: as §1

[8] = target: Opiate δ2 (Homo sapiens, UniProt P41143); assay: NSAIDS and Opioid Receptor Test: Opiate δ2; assay type: binding
Experimental: as §1

[9] = Bioavailability Test (rat pharmacokinetics); assay type: in vivo
Experimental: Oral bioavailability of compounds of Formulae (Ie), (Ih), (Ik), and (Ir), or a pharmaceutically acceptable salt of any of the foregoing, were evaluated in fasted male Sprague-Dawley (SD) rats weighing 200-225g. Compounds were dosed at 3 mg/kg (IV) and 30 mg/kg (PO). Unless otherwise noted, compounds were dissolved in 0.9% saline for IV dosing and 100% sterile water for PO dosing. Pharmacokinetic parameters were determined using Phoenix WinNonlin (v7.0). […]

[10] = tested on: male Sprague-Dawley rats; assay: Formalin Paw Test, rat, oral; assay type: in vivo; details: 30 mg/kg
Experimental: (§2) One test compound or the vehicle was administered to each rat or mouse in each test group (8 rats or mice per group). Non-fasted male Sprague-Dawley rats weighing 200-225 g or non-fasted male ICR mice weighing 23±3 g were used. […] Responses were measured every 5 minutes after the formalin injection for 35 minutes. The results in Table 2 are for oral administration in rat and the results in Table 3 are for intraperitoneal administration in mouse. In Tables 2 and 3, 'A' designates <70 seconds of paw licking, 'B' designates >70 and <165 seconds of paw licking, and 'C' designates >165 seconds of paw licking.

[11] = tested on: male ICR mice; assay: Formalin Paw Test, mouse, intraperitoneal; assay type: in vivo; details: 60 mg/kg; for Early Phase, seconds of paw licking: early/acute phase (0-10 minutes); for Late Phase, seconds of paw licking: late/tonic phase (10-35 minutes)
Experimental: as §2

[12] = tested on: male Sprague-Dawley rats; assay: Post-Incisional (Brennan) Pain Test; assay type: in vivo; details: rat, oral; for cumulative pain score, 4 h: 4 h post-dosing; for cumulative pain score, 24 h: 24 h post-dosing
Experimental: Incisional pain was induced in non-fasted male Sprague-Dawley rats weighing 180-300 g by making a 1-cm plantar incision in the left hind paw and is designed to mimic pain and sensitivity similar to what is reported by patients after surgery. Dosing occurred at the time of incision and spontaneous pain was measured 4 and 24 hours post-dosing using a cumulative pain score. The unrestrained animals were placed on a metal mesh platform and allowed to acclimate for about 15 min/ Each animal was closely observed during a 1-min period repeated every 5 min for 1 h (12 times total). Depending on the position in which the foot was found during the scoring period, a score of 0, 1, or 2 was given. Full weight bearing of the foot (score=0) was present if the skin on the plantar surface of the paw wound was blanched or distorted by the mesh. If the foot was completely off the mesh, or one or more instances of licking or flinching was observed, a score of 2 was recorded and the licking or flinching was noted but not counted. If the plantar surface of the paw touched the mesh without blanching or distorting, a score of 1 was given. The sum of the 12 scores obtained during the 1 h session was calculated (maximum score=24) for each animal. Observations were made during hours 4 and 24. Test articles were administered orally at concentrations of 10, 30 or 100 mg/kg and ketoprofen was administered subcutaneously at a concentration of 10 mg/kg. The control group received the vehicle (sterile water). In Table 6, ‘A’ designates a cumulative pain score of ≤11, ‘B’ designates >11 and ≤16, and ‘C’ designates >16.
The results provided in Table 6 are for oral administration in rats.

[13] = male, Sprague-Dawley, in vivo, IV 3 mg/kg, 0.9% saline
[14] = male, Sprague-Dawley, in vivo, PO 30 mg/kg, sterile water

Opiate κ, sequence (P41145 whole entry): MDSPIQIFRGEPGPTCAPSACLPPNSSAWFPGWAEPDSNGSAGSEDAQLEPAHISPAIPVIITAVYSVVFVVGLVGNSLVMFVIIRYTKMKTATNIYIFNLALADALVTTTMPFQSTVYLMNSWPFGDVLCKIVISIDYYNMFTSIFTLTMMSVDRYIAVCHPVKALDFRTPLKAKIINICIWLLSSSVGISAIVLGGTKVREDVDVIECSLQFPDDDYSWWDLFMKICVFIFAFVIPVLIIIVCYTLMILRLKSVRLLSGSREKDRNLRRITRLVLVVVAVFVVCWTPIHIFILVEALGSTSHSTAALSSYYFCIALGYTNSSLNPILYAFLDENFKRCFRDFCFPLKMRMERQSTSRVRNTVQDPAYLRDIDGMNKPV
Opiate μ, sequence (P35372 whole entry): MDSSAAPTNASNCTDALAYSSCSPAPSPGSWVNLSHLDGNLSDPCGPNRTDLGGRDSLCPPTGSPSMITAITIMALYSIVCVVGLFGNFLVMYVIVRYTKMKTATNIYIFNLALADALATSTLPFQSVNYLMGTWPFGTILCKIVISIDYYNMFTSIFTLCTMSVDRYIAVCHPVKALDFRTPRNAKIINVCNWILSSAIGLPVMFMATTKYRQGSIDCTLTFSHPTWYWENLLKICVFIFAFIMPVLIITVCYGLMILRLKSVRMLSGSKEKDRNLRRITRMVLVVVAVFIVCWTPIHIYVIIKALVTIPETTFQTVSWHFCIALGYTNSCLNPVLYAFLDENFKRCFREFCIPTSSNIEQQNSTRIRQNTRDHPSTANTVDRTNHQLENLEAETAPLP
COX-1, sequence (P23219 24-599): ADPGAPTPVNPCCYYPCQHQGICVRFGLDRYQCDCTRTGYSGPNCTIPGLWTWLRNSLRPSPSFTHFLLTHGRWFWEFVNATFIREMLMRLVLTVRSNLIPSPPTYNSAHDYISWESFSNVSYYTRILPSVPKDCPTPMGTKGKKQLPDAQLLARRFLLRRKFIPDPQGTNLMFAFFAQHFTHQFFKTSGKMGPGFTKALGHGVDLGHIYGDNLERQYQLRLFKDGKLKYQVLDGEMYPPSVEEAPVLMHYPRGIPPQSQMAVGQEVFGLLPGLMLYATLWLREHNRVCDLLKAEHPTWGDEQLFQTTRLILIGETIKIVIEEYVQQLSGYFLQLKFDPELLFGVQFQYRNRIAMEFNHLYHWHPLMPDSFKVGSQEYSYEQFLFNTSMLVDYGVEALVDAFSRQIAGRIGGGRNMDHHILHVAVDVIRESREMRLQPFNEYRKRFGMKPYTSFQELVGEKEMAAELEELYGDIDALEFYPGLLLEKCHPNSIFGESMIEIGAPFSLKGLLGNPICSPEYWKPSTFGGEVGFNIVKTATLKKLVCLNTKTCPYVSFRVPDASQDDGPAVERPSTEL
Opiate δ2, sequence (P41143 whole entry): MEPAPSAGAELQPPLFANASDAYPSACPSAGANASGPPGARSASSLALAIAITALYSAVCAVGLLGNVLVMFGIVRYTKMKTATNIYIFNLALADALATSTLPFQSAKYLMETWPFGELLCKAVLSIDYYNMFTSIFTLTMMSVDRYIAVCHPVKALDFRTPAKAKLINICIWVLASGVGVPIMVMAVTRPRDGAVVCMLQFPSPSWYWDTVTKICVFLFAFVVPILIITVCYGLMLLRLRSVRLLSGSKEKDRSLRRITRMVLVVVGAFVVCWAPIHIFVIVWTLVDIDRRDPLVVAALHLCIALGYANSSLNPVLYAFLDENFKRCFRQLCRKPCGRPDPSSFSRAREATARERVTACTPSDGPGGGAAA
Opiate δ1, sequence (P41143 whole entry): as above

## CC(=O)Nc1ccc(O)cc1 [Acetaminophen, reference compound]
[1]
  inhibition at 10 µM: 2%
[2]; 1 h after dosing
  paw withdrawal latency, 1 h: A (>8 seconds of paw withdrawal latency)
[2]; 2 h after dosing
  paw withdrawal latency, 2 h: A (>8 seconds of paw withdrawal latency)
[2]; 4 h after dosing
  paw withdrawal latency, 4 h: A (>8 seconds of paw withdrawal latency)
[3]; mouse, in vivo, ip
  least preferred (drug associated) chamber residence time: no increase
[4]; read-out: % Inhibition, COX-1 (human)
  inhibition at 10 µM: -7%
[5]; read-out: % Inhibition, COX-2 (human)
  inhibition at 10 µM: 3%
[6]; 10 μM
  inhibition at 10 µM: -5%
[7]; 10 μM
  inhibition at 10 µM: -1%

## Cl.NC12CC(c3cccc(C(F)(F)F)n3)(C1)C2 [Compound 13, 3-(6-(Trifluoromethyl)pyridin-2-yl)bicyclo[1.1.1]pentan-1-amine hydrochloride]
[4]; 200 μM
  inhibition at 200 µM: 6%
[8]; 200 μM
  inhibition at 200 µM: 6%
[9]; PO 30 mg/kg vs IV 3 mg/kg
  F: 16%
[9]; [13]
  AUC(0-inf): 3 µM·h
  clearance: 73 mL/min/kg
  half-life: 9.5 h
[9]; male, Sprague-Dawley, in vivo, IV 3 mg/kg, 0.9% saline, read-out: Vdss
  Vd: 20.2 L/kg
[9]; [14]
  AUC(0-inf): 35 µM·h
  Cmax: 11 µM
  Tmax: 0.6 h
  half-life: 6.8 h
[5]; 200 μM
  inhibition at 200 µM: 8%
[6]; 200 μM
  inhibition at 200 µM: 56%
[10]; early/acute phase (0-10 minutes)
  Early Phase, seconds of paw licking: A (<70 seconds of paw licking)
[10]; late/tonic phase (10-35 minutes)
  Late Phase, seconds of paw licking: A (<70 seconds of paw licking)
[7]; 200 μM
  inhibition at 200 µM: 33%

## CC(C)[C@H](N)C(=O)NC12CC(C(F)(F)F)(C1)C2 [Compound 23, (S)-2-Amino-3-methyl-N-(3-(trifluoromethyl)bicyclo[1.1.1]pentan-1-yl)butanamide hydrochloride]
[11]
  Early Phase, seconds of paw licking: A (<70 seconds of paw licking)
  Late Phase, seconds of paw licking: C (>165 seconds of paw licking)

## CCOC(=O)NC12CC(C(F)(F)F)(C1)C2 [Compound 24, Ethyl (3-(trifluoromethyl)bicyclo[1.1.1]pentan-1-yl)carbamate]
[11]
  Early Phase, seconds of paw licking: A (<70 seconds of paw licking)
  Late Phase, seconds of paw licking: B (>70 and <165 seconds of paw licking)

## NC12CC(C(F)(F)F)(C1)C2 [Compound 28, 3-(trifluoromethyl)bicyclo[1.1.1]pentan-1-amine hydrochloride]
[12]; 10 mg/kg
  cumulative pain score, 4 h: C (>16)
  cumulative pain score, 24 h: C (>16)
[12]; 30 mg/kg
  cumulative pain score, 4 h: B (>11 and ≤16)
  cumulative pain score, 24 h: B (>11 and ≤16)
[12]; 100 mg/kg
  cumulative pain score, 4 h: B (>11 and ≤16)
  cumulative pain score, 24 h: A (a cumulative pain score of ≤11)
[3]; mouse, in vivo, ip
  least preferred (drug associated) chamber residence time: no increase
[8]; 100 μM
  inhibition at 100 µM: 2%
[6]; 100 μM
  inhibition at 100 µM: 3%
[7]; 100 μM
  inhibition at 100 µM: 1%

## CN1CC[C@]23c4c5ccc(O)c4O[C@H]2[C@@H](O)C=C[C@H]3[C@H]1C5 [morphine, reference compound]
[3]; mice, IP, drug pairing 4 consecutive days, assessed on day 9
  least preferred (drug associated) chamber residence time: significant increase
[3]; mice, IP, drug pairing 4 consecutive days, assessed on day 14
  least preferred (drug associated) chamber residence time: significant increase
